Data published in ChEMBL document CHEMBL1121482, “Prevention of Ames test mutagenicity by chemical modification in a series of monoamine oxidase inhibitors” (J Med Chem, 1980).

Assays:
[1] = test system: Salmonella typhimurium; assay: Ames test averaged in revertants/plate with Salmonella Typhimurium TA98 at 1.0 mg/plate; assay type: functional, Salmonella enterica subsp. enterica serovar Typhimurium
[2] = test system: Salmonella typhimurium; assay: Ames test averaged in revertants/plate with Salmonella Typhimurium TA98 at 0.13 mg/plate; assay type: functional, Salmonella enterica subsp. enterica serovar Typhimurium
[3] = test system: Salmonella typhimurium; assay: Ames test averaged in reverts/plate with Salmonella Typhimurium TA1538 at 0.13 mg/plate; assay type: functional, Salmonella enterica subsp. enterica serovar Typhimurium
[4] = test system: Salmonella typhimurium; assay: Ames test averaged in revertants/plate with Salmonella Typhimurium TA1538 at 0.25 mg/plate; assay type: functional, Salmonella enterica subsp. enterica serovar Typhimurium
[5] = test system: Salmonella typhimurium; assay: Ames test averaged in revertants/plate with Salmonella Typhimurium TA98 at 0.50 mg/plate; assay type: functional, Salmonella enterica subsp. enterica serovar Typhimurium
[6] = test system: Salmonella typhimurium; assay: Ames test averaged in revertants/plate with Salmonella Typhimurium TA1538 at 0.50 mg/plate; assay type: functional, Salmonella enterica subsp. enterica serovar Typhimurium
[7] = test system: Salmonella typhimurium; assay: Ames test averaged in revertants/plate with Salmonella Typhimurium TA98 at 0.25 mg/plate; assay type: functional, Salmonella enterica subsp. enterica serovar Typhimurium
[8] = test system: Salmonella typhimurium; assay: Ames test averaged in revertants/plate with Salmonella Typhimurium TA1538 at 1.0 mg/plate; assay type: functional, Salmonella enterica subsp. enterica serovar Typhimurium
[9] = Partition coefficient (logP); assay type: physicochemical; conditions: octanol/water
[10] = test system: Salmonella typhimurium; assay: Ames test averaged in revertants/plate with Salmonella Typhimurium TA1538 at 0.13 mg/plate; assay type: functional, Salmonella enterica subsp. enterica serovar Typhimurium
[11] = test system: Salmonella typhimurium; assay: Ames test averaged in revertants/plate with Salmonella Typhimurium TA1538 at 0.1 mg/plate; assay type: functional, Salmonella enterica subsp. enterica serovar Typhimurium
[12] = test system: Salmonella typhimurium; assay: Ames test averaged in revertants/plate with Salmonella Typhimurium TA98 at 0.1 mg/plate; assay type: functional, Salmonella enterica subsp. enterica serovar Typhimurium
[13] = test system: Salmonella typhimurium; assay: Ames test averaged in revertants/plate with Salmonella Typhimurium TA1538 at 0.5 mg/plate; assay type: functional, Salmonella enterica subsp. enterica serovar Typhimurium
[14] = test system: Salmonella typhimurium; assay: Ames test averaged in revertants/plate with Salmonella Typhimurium TA98 at 0.5 mg/plate; assay type: functional, Salmonella enterica subsp. enterica serovar Typhimurium
[15] = test system: Salmonella typhimurium; assay: Ames test averaged in revertants/plate with Salmonella Typhimurium TA1538 at 2.5 mg/plate; assay type: functional, Salmonella enterica subsp. enterica serovar Typhimurium
[16] = test system: Salmonella typhimurium; assay: Ames test averaged in revertants/plate with Salmonella Typhimurium TA1538 at 5 mg/plate; assay type: functional, Salmonella enterica subsp. enterica serovar Typhimurium
[17] = test system: Salmonella typhimurium; assay: Ames test averaged in revertants/plate with Salmonella Typhimurium TA98 at 2.5 mg/plate; assay type: functional, Salmonella enterica subsp. enterica serovar Typhimurium
[18] = test system: Salmonella typhimurium; assay: Ames test averaged in revertants/plate with Salmonella Typhimurium TA98 at 5 mg/plate; assay type: functional, Salmonella enterica subsp. enterica serovar Typhimurium

Row | SMILES | Revertants/plate [1] | Revertants/plate [2] | Revertants/plate [3] | Revertants/plate [4] | Revertants/plate [5] | Revertants/plate [6] | Revertants/plate [7] | Revertants/plate [8] | logP [9] | Revertants/plate [10] | Revertants/plate [11] | Revertants/plate [12] | Revertants/plate [13] | Revertants/plate [14] | Revertants/plate [15] | Revertants/plate [16] | Revertants/plate [17] | Revertants/plate [18]
1 | CC(=O)Nc1ccc2c(c1)S(=O)(=O)c1ccccc1-2 | 4 | 0 | 0 | 0 | 2 | 2 | 0 | 2 |  |  |  |  |  |  |  |  |  | 
2 | CC(=O)Nc1ccc2c(c1)S(=O)(=O)c1ccc(C)cc1C2=O | 8 | 1 |  | 2 | 0 | 0 | 0 | 5 | 2.76 | 0 |  |  |  |  |  |  |  | 
3 | CC(=O)Nc1ccc2c(c1)[nH]c1ccccc12 | 456 | 725 |  | 762 | 468 | 699 | 732 | 775 | 3.02 | 679 |  |  |  |  |  |  |  | 
4 | CCc1ccc2c(c1)C(=O)c1ccc(NC(C)=O)cc1S2(=O)=O | 0 | 0 |  | 0 | 0 | 1 | 0 | 2 | 3.44 | 1 |  |  |  |  |  |  |  | 
5 | CC(=O)Nc1ccc2c(c1)S(=O)(=O)c1ccccc1C2=O |  |  |  |  |  |  |  |  | 2.35 |  | 0 | 0 | 0 | 0 | 0 | 0 | 0 | 0
6 | CCCc1ccc2c(c1)C(=O)c1ccc(NC(C)=O)cc1S2(=O)=O | 0 | 0 |  | 0 | 0 | 0 | 0 | 0 | 3.51 | 0 |  |  |  |  |  |  |  | 
